Experimental data: patent publication US10716830B2, “ERBB4 activator screening assay” (Children's Hospital Los Angeles, priority 2011, dated 2020)

Experiments:
Type in all cases: cell-based, mouse
ERK MAPK = ERK MAPK phosphorylation in whole cell lysates by western blot; details: YAMC-B4 cells; NRG4 100 ng/ml, 10 min
Excerpt: (§1) Cell lysates were extracted in modified RIPA buffer as previously described (Frey, M. R., Dise, R. S., Edelblum, K. L., and Polk, D. B. (2006) Embo J 25, 5683-5692), cleared by centrifugation, and boiled in Laemmli sample buffer. Samples were separated on SDS-polyacrylamide gels (6-10% as appropriate), blotted on PVDF membranes, and subjected to quantitative immunoblot using the Li-Cor Odyssey infrared detection system. Equal loading was monitored by immunoblots for actin and at least one additional protein.
(§2) To identify signaling pathways which could be involved in NRG4-stimulated cell survival, we exposed YAMC-B4 cells to NRG4 or EGF and prepared whole cell lysates for western blot analysis. […] Furthermore, COX-2 expression, which is induced by either HRG-1β or EGF after 6 h exposure, and is required for cell survival induced by ErbB4-EGFR dimers (Frey, M. R., Hilliard, V. C., Mullane, M. T., and Polk, D. B. (2010) Laboratory Investigation 90, 1415-1424), was not induced by NRG4. Thus, NRG4 promotes cell survival through pathways at least partly distinct from those activated by other ligands.

Akt = Akt phosphorylation in whole cell lysates by western blot; details: YAMC-B4 cells; NRG4 100 ng/ml, 10 min
Excerpt: as §1, §2

YAMC-B4 cells [1] = experiment: Cell migration/restitution (modified scratch) assay; details: 8 h
Protocol: Cells grown on fibronectin-coated plates were subjected to multiple circular wounds with a rotating silicone probe as previously described (Corredor, J., Yan, F., Shen, C. C., Tong, W., John, S. K., Wilson, G., Whitehead, R., and Polk, D. B. (2003) American journal of physiology. Cell physiology 284, C953-961). Cultures were photographed immediately and 8 h after wounding; % closure was determined by measuring wounds in Image.
To test the potential effect of NRG4-ErbB4 signaling on cell motility, we used a modified scratch assay for restitution/migration (Corredor, J., Yan, F., Shen, C. C., Tong, W., John, S. K., Wilson, G., Whitehead, R., and Polk, D. B. (2003) American journal of physiology. Cell physiology 284, C953-961). Over an 8 h period, NRG4 had no effect on the rate at which YAMC-B4 cells moved into the denuded area of a culture plate (FIG. 4C), while in contrast EGF caused a 54% increase in migration over control.

YAMC-B4 cells [2] = experiment: EdU proliferation assay; details: 24 h stimulation
Protocol: Proliferative index in fixed colon specimens was assessed by immunohistochemical stain for Ki-67. In vitro, cells were exposed to vehicle or growth factors for 24 h, then labeled with 5-ethynyl-2-deoxyuridine (EdU) for 2 h and fixed. Nuclei were marked with DAPI, and incorporated EdU was detected using a Click-iT EdU kit (Invitrogen).
Most ErbB ligands stimulate multiple cellular processes, including proliferation and migration, in colon epithelial cells (Frey, M. R., Golovin, A., and Polk, D. B. (2004) J Biol Chem 279, 44513-44521). To determine if NRG4 is similarly broad in its cellular effects, we subjected YAMC-B4 cells to proliferation assays in the presence of NRG4. […] In vivo, the number of Ki67-positive nuclei per crypt in PBS vs. NRG4-injected mice was not altered 24 h post-injection (FIG. 4B).

[3] = tested on: EGFR, ErbB2, ErbB3, and ErbB4; experiment: ErbB receptor phosphorylation by western blot with phospho-specific antibodies; details: YAMC-B4 cells (human ErbB4 construct); 10 min; HRG-1β 100 ng/ml, NRG4, EGF 10 ng/ml
Excerpt: Conditionally immortalized, non-transformed young adult mouse colon (YAMC) epithelial cells were provided by Dr. Robert Whitehead (Whitehead, R. H., VanEeden, P. E., Noble, M. D., Ataliotis, P., and Jat, P. S. (1993) Proc Natl Acad Sci USA 90, 587-591). These cells express low levels of endogenous ErbB4; YAMC-B4 cells expressing a human ErbB4 construct were generated as previously described (Frey, M. R., Edelblum, K. L., Mullane, M. T., Liang, D., and Polk, D. B. (2009) Gastroenterology 136, 217-226). […]
as §1
Phosphorylation of EGFR, ErbB2, ErbB3, and ErbB4 was determined by western blot analysis of cell lysates using phospho-specific antibodies. […]

COX-2 = COX-2 expression in YAMC-B4 cells; details: 6 h exposure
Protocol: as §2

## epidermal growth factor (NSYPGCPSSYDGYCLNGGVCMHIESLDSYTCNCVIGYSGDRCQTRDLRWWELR; Epidermal growth factor; UniProt P01132 977-1029, looked up) [EGF, Recombinant murine EGF from Peprotech; positive control for cell stimulation, reference compound]
ERK MAPK
  phosphorylation of ERK MAPK: activated both cascades
Akt
  phosphorylation of Akt: activated both cascades
YAMC-B4 cells [1]
  increase in migration over control: 54%
YAMC-B4 cells [2]
  stimulation of proliferation over control (EdU): 31.5%
[3]
  phosphorylation of EGFR, ErbB2, ErbB3, and ErbB4: stimulated phosphorylation of multiple ErbBs
COX-2
  COX-2 expression: induced
